In patent US20110077239A1, “GLYCINE RECEPTOR AGONISTS FOR THE TREATMENT OF PHANTOM PHENOMENA” (priority 2007, published 2011):

Assays:
[1] = tested on: inner ear; details: chronic local administration to the inner ear of guinea pigs; high frequencies; cited from earlier work
[2] = tested on: auditory nerve; assay: Measurements of compound action potentials (CAP) of the auditory nerve after local administration; format: in vivo, rat
Text: In the experiments adult female Wistar rats (Charles River, Sulzfeld, Germany) in the age of 2 to 4 months were used.
To get an access to the inner ear (cochlea) the middle ear is opened by surgery: A small opening behind the ear drum enables the access to the round window of the cochlea, in the massive bone of the bony labyrinth this is the only non-traumatic access to the inner ear. A silver wire electrode having a surface melted silver pearl is carefully positioned through the opening on the membrane of the round window, secured with tissue glue and the opening is closed with dental cement. The silver wire is conducted in the neck of the animal through the skin towards the outside and can then directly be connected to the electrophysiology amplifier for the measurements. The direct electrical access through the CAP electrode enables the direct largely interference-free down lead of the compound potentials of the auditory nerves resulting from an acoustic stimulation. In the signal response, besides the compound action potentials of the auditory nerves (CAP), also the formation of the excitation in the outer hair sense cells (OHC) can be detected as cochlea microphone potentials (CM). These three potentials in the measurements in vivo provide information on: 1) the activity of the auditory nerve close to the threshold up to high levels of acoustic pressure and, therefore, also on the modulation of the transmission, which is mediated by a glycinergic efferent feedback to the afferences of the IHCs, 2) the integrity of the IHCs (via the course of the SPs at increasing levels of acoustic pressures), 3) the amplification by the OHC (through the phase synchronicity of the CM signals with the auditory stimulus).
For this purpose the compound action potentials were activated by different sound stimuli (broadband click stimuli, pure sounds having frequencies of between 4 and 32 kHz, and degrees of loudness from 0 to 100 dB SPL).

## O=C1C[C@@H]2OCC=C3CN4CC[C@]56c7ccccc7N1[C@H]5[C@H]2[C@H]3C[C@H]46 [strychnine]
[1]
  efferent activity and threshold shift after acoustic trauma: disrupts efferent activity and results in a permanent threshold shift

## NCCS(=O)(=O)O [taurine]
[2]; 2 days after LA, high and low degrees of loudness, in relation to the untreated condition
  amplitude of the CAP signals two days after local administration: still reduced
[2]; local administration at round window niche, taurine 5 μl of a 50 mM solution, strychnine 5 μl of a 10 mM solution, high degrees of loudness
  CAP amplitudes at high degrees of loudness after local administration: overlapping of the CAP amplitude function
[2]; local administration at round window niche, taurine 5 μl of a 50 mM solution, low to medium degrees of loudness
  CAP amplitudes at low to medium degrees of loudness after local administration: increase slower
[2]; within 1-3 hours after local administration, measurements at 8 kHz, FIG. 7
  amplitude of the CAP signal within 1-3 hours after local administration: reduction of the amplitude of the CAP signals
